Assay results reported in US11541019B2, “Compositions for use in the treatment of diabetes” (University of Ulster, priority 2015, dated 2023).
Read-outs that look alike come from different tables or passages of the source.

Assays:
[1] = test system: BRIN-BD11 cells; assay: Acute insulin secretion from clonal BRIN-BD11 cells (radioimmunoassay); assay type: cell-based; conditions: for concentrations that enhanced insulin release: tested 10^−12-10^−4 mol/L; for EC50: Rattus norvegicus, BRIN-BD11, 20 min, 20 min incubation, read-out: EC50 of enhanced insulin release
Description: (§1) Insulin-secreting BRIN-BD11 cells were cultured with RPMI-1640 media (11.1 mM glucose) containing antibiotics (100 U/ml penicillin and 0.1 mg/ml streptomycin) and 10% foetal calf serum at 37° C. in an atmosphere of 95% air and 5% carbon dioxide. For acute insulin secretion studies, cells were detached using trypsin/EDTA and incubated overnight in 24 well plates with 150,000 cells per well. Cells were then pre-incubated for 40 minutes at 1.1 mmol/l glucose in Krebs buffer (comprising 4.7 mmol/l KCL, 115 mmol/l NaCl, 1.28 mmol/CaCl2, 10 mmol/l NaHCO3, 5 g/l BSA, 1.2 mmol/l KH2PO4, 1.2 mmol/l MgSO47H2O pH 7.4). Test incubations were then performed at 37° C. for 20 minutes. DIM, indole-3-carbinol, embelin, [6]-gingerol, and [6]-shogaol at 10^−12-10^−4 mol/L were tested at both 5.6 mmol/L and 16.7 mmol/L glucose, as indicated in the accompanying drawings. Supernatants were removed, evaluated for lactate dehydrogenase (LDH) release as an indicator of cytotoxicity (as per manufacturer's protocol) or frozen at −20° C. until determination of insulin by radioimmunoassay.

[2] = test system: BRIN-BD11 cells; assay: LDH release from BRIN-BD11 cells as indicator of cytotoxicity; assay type: cell-based
Description: as §1

[3] = test system: BRIN-BD11 cells; assay: Intracellular Ca2+ in BRIN-BD11 cells (Flex calcium assay kit); assay type: cell-based; conditions: 10^−4 mol/L, 16.7 mM glucose
Description: (§2) For intracellular Ca2+ measurement, monolayers of BRIN-BD11 cells were seeded overnight at a density of 80,000 cells per well in a 96-well black walled clear bottom plate. Cells were washed with 100 μl of Krebs buffer and incubated for 1 hour with Flex calcium assay kit reagent at 37° C. GPR84 at 10^−4 mol/L were added at 5.6 mmol/L and 16.7 mmol/L glucose. Fluorometric data were obtained using the FLEX Station scanner and test solutions were transferred using fluid transfer workstation at a wavelength of 525 nm (Molecular Devices). For cAMP determination, BRIN-BD11 cells were seeded in a 96-well plate at a density of 30,000 cells per well. Cells were washed with 300 μl Krebs buffer for 40 min and 150 μl of compositions of the present invention at 10^−10-10^−4 mol/L were tested at […] glucose. After 20 minutes, test solutions were removed and 0.1M HCL (150 μL) was added to lyse the cells. Total cAMP production in the cell supernatants were measured using cAMP enzyme immunoassay kit according to the manufacturer's protocol (Sigma, Poole, UK).

[4] = test system: BRIN-BD11 cells; assay: cAMP production in BRIN-BD11 cells (enzyme immunoassay); assay type: cell-based; conditions: 11.1 mM glucose, 20 min
Description: as §2

[5] = test system: NIH Swiss mice; assay: Acute effects on plasma glucose and insulin after oral glucose load; assay type: in vivo; conditions: for circulating (plasma) glucose after glucose load / plasma insulin (insulin release) after glucose load: high fat fed mice, oral 50 μmol/kg with glucose 18 mmol/kg
Description: Adult male (20-22 week) NIH Swiss mice (Harlan UK Ltd) were individually housed in an air-conditioned room at 22±2° C. with 12 hour light: 12 hour darkness cycles. […] Non-fasted NIH Swiss mice (n=6) received an oral injection of glucose alone (18 mmol/kg body weight) or in combination with compositions of the present invention (50 μmol/kg body weight). Blood samples were obtained from the cut tip from tail vein of conscious mice and centrifuged at 13,000 rpm for 3 minutes at 4° C. Plasma glucose was measured by an automated glucose oxidase procedure using a Beckman glucose analyser and insulin determined by radioimmunoassay. All animal experiments were carried out in accordance with the UK Animal (Scientific Procedures) Act 1986.

[6] = test system: high fat fed diabetic NIH Swiss mice; assay: Long-term daily oral administration in high fat fed diabetic mice; assay type: in vivo; conditions: for pancreatic insulin content: HFF model; for plasma insulin following oral glucose / plasma glucose following a glucose load: after long-term daily administration; for plasma glucose following a glucose load: glucose 18 mmol/kg; for increase in circulating GLP-1: at 30 min after oral glucose, long term study; for plasma GLP-1: at the end of the study; for insulin sensitivity: insulin 25 U/kg; for body weight: daily oral for 21 days; for non-fasting plasma insulin: after 21 days; for decrease in plasma glucose, area under the curve: over 21 days; for GLP-1 secretion: over the long term study, after oral glucose
Description: […] In order to confirm diabetes, an oral glucose tolerance test (OGTT) was performed. Food intake, fluid intake, body weight, non-fasted plasma glucose and insulin concentrations were monitored every 2- to 4-days as indicated in the accompanying drawings. At the end of the study, glucose tolerance (18 mmol/kg body weight) and insulin sensitivity (25 U/kg body weight) were assessed. Mice were anesthetised by isoflurane and killed by cervical dislocation. Dual energy X-ray absorption (DEXA) scanning was performed after prior calibration and quality control with the aluminium/lucite phantom (0.069 g/cm2, 12.0% fat) using a PIXImus system (software version 1.4x).

[7] = high fat fed mice, daily administration
[8] = 5.6 mM or 16.7 mM glucose, not separated at the place

In the case of `c1ccc2c(Cc3c[nH]c4ccccc34)c[nH]c2c1` [Diindolylmethane, 3,3′-methanediylbis(1H-indole)], the “concentrations that enhanced insulin release” value ([1]; 5.6 mM glucose) is reported as 10^−8-10^−4 mol/L, the “concentrations that enhanced insulin release” value ([1]; 16.7 mM glucose) is reported as 10^−9-10^−4 mol/L and the EC50 ([1]; 5.6 mM basal glucose) is reported as 130 nM. The EC50 ([1]; 16.7 mM stimulatory glucose) was 1000 nM, the “cytotoxicity (LDH release)” value ([2]; 5.6 mM glucose) was “No cytotoxicity” and the “cytotoxicity (LDH release)” value ([2]; 16.7 mM glucose) was “No cytotoxicity”. The “intracellular Ca2+ concentrations” value [3] was “increased intracellular Ca2+ concentrations”, the “cAMP production / involvement of cAMP pathway” value (from here on “cAMP production / involvement”) [4] was “involves the cAMP-dependent pathway” and the “circulating (plasma) glucose after glucose load” value (from here on “circulating (plasma) glucose”) [5] was “decreased circulating glucose”. The “plasma insulin (insulin release) after glucose load” value [5] was “increase in insulin release”, the pancreatic insulin content ([6]; daily administration) was “reduced pancreatic insulin content” and the “plasma insulin following oral glucose” value ([6]; high fat fed mice) was “decreased plasma insulin”. For the same compound, the “plasma glucose following a glucose load” value ([6]; high fat fed mice) was “attenuated”, the “increase in circulating GLP-1” value ([6]; high fat fed mice) was 61% and the “plasma GLP-1” value ([6]; high fat fed mice) was “raised”. For the same compound, the “total body fat (DEXA)” value [6, 7] was “decreased body fat”, the insulin sensitivity [6, 7] was “decreased” and the energy intake ([6]; high fat fed mice, daily oral) was “decreased energy intake”. For the same compound, the fluid intake ([6]; high fat fed mice, daily oral) was “no effect on fluid intake”, the body weight ([6]; high fat fed mice) was “decreased body weight after 15 days” and the non-fasting plasma insulin ([6]; high fat fed mice, daily oral) was “augmented”. The non-fasting plasma glucose ([6]; high fat fed mice, daily oral, at 21 days) was “decrease in plasma glucose”, the “decrease in plasma glucose, area under the curve” value ([6]; high fat fed mice, daily oral) was 18% and the GLP-1 secretion ([6]; high fat fed mice) was “increased GLP-1 secretion”.
`CCCCCCCCCCCC1=C(O)C(=O)C=C(O)C1=O` [Embelin, 2,5-dihydroxy-3-undecylcyclohexa-2,5-diene-1,4-dione] was tested, and the “concentrations that enhanced insulin release” value ([1]; 5.6 mM glucose) was 10^−9-10^−4 mol/L, the “concentrations that enhanced insulin release” value ([1]; 16.7 mM glucose) was 10^−10-10^−4 mol/L and the EC50 ([1]; 5.6 mM basal glucose) was 730 nM. For the same compound, the EC50 ([1]; 16.7 mM stimulatory glucose) was 210 nM, the “cytotoxicity (LDH release)” value ([2]; 5.6 mM glucose) was “No cytotoxicity” and the “cytotoxicity (LDH release)” value ([2]; 16.7 mM glucose) was “No cytotoxicity”. The “intracellular Ca2+ concentrations” value [3] was “increased intracellular Ca2+ concentrations”, the “cAMP production / involvement” value [4] was “involves the cAMP-dependent pathway” and the “circulating (plasma) glucose” value [5] was “decreased circulating glucose”. For the same compound, the “plasma insulin (insulin release) after glucose load” value [5] was “increase in insulin release”, the pancreatic insulin content ([6]; daily administration) was “reduced pancreatic insulin content” and the “plasma insulin following oral glucose” value ([6]; high fat fed mice) was “decreased plasma insulin”. The “plasma glucose following a glucose load” value ([6]; high fat fed mice) was “significantly decreased”, the “increase in circulating GLP-1” value ([6]; high fat fed mice) was 45% and the “plasma GLP-1” value ([6]; high fat fed mice) was “raised”. The “low-density lipoprotein (LDL) cholesterol” value [6, 7] was “reduced”, the “total body fat (DEXA)” value [6, 7] was “no change in total body fat” and the total cholesterol [6, 7] was “reduced”. For the same compound, the insulin sensitivity [6, 7] was “decreased”, the body weight ([6]; high fat fed mice) was “no effect on body weight” and the non-fasting plasma glucose ([6]; high fat fed mice, daily oral, after 9 days of treatment) was “significant decrease in plasma glucose”. The non-fasting plasma insulin ([6]; high fat fed mice, daily oral) was “augmented”, the “decrease in plasma glucose, area under the curve” value ([6]; high fat fed mice, daily oral) was 17% and the GLP-1 secretion ([6]; high fat fed mice) was “increased GLP-1 secretion”.
In the case of `OCc1c[nH]c2ccccc12` [Indole-3-carbinol, 1H-Indol-3-ylmethanol], the “concentrations that enhanced insulin release” value ([1]; 5.6 mM glucose) is reported as 10^−7-10^−4 mol/L, the “concentrations that enhanced insulin release” value ([1]; 16.7 mM glucose) is reported as 10^−6-10^−4 mol/L and the EC50 ([1]; 5.6 mM basal glucose) is reported as 1500 nM. For the same compound, the EC50 ([1]; 16.7 mM stimulatory glucose) was 400 nM, the “cytotoxicity (LDH release)” value [2, 8] was “No cytotoxicity” and the “circulating (plasma) glucose” value [5] was “significantly decreased”.
In the case of `CCCCC[C@H](O)CC(=O)CCc1ccc(O)c(OC)c1` [[6]-gingerol, (5S)-5-hydroxy-1-(4-hydroxy-3-methoxyphenyl)decan-3-one], the “concentrations that enhanced insulin release” value ([1]; 5.6 mM glucose) is reported as 10^−8-10^−4 mol/L, the “concentrations that enhanced insulin release” value ([1]; 16.7 mM glucose) is reported as 10^−8-10^−4 mol/L and the EC50 ([1]; 5.6 mM basal glucose) is reported as 1900 nM. The EC50 ([1]; 16.7 mM stimulatory glucose) was 2800 nM, the “cytotoxicity (LDH release)” value [2, 8] was “No cytotoxicity” and the “plasma glucose after glucose load” value ([5]; NIH Swiss mice, diet not separated (normal chow and high fat), oral with glucose 18 mmol/kg) was “significant decrease”.
`CCCCC/C=C/C(=O)CCc1ccc(O)c(OC)c1` [[6]-shogaol, (E)-1-(4-hydroxy-3-methoxyphenyl)dec-4-en-3-one] was tested, and the “intracellular Ca2+ concentrations” value [3] was “increased intracellular Ca2+ concentrations” and the “cAMP production / involvement” value [4] was “act through the cAMP pathway”.
